Reference: patent US20240207422A1, “NERVE TARGETING PEPTIDE CONJUGATES AND METHODS OF USE” (Alume Biosciences, Inc., priority 2022, published 2024)

Test system: excised human nerve tissue
Assay: Phage display selection on excised human nerve tissue (Nerve2, Nerve3), NextGen sequence counts
Type: binding
Conditions: unique sequence count (relative enrichment)
Method in brief: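 Randomized parent-peptide m13 phage libraries (about 50% mutation per residue) selected on washed excised human nerve tissue over multiple rounds, washing nerve pellet with PBS. NextGen sequencing of pools after rounds 2, 3 and 4; translated peptides counted by frequency, with counts 6 or greater retained.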

Row | Substance | Count (Nerve2 only) | Count (Nerve3 only)
1 | 304 (RVPGERQYDALNLS) [compound 304] | 11 | 
2 | 305 (YVPLQEPYYVVKQS) [compound 305] | 11 | 
3 | 306 (ESALKEPHQVLKHS) [compound 306] | 10 | 
4 | 307 (HAPADQLYYPVWKP) [compound 307] | 10 | 
5 | 308 (HFPWEEPYHVAKRS) [compound 308] | 10 | 
6 | 309 (HFQSEEPYHIPHKH) [compound 309] | 10 | 
7 | 310 (HHPLQEPYYVVEKS) [compound 310] | 10 | 
8 | 311 (HMPGREPYYVVTTS) [compound 311] | 10 | 
9 | 312 (HVAWKGPYYVLETH) [compound 312] | 10 | 
10 | 313 (HVHGAPSYSVLKHS) [compound 313] | 10 | 
11 | 314 (HVLWVEPYYVINKY) [compound 314] | 10 | 
12 | 315 (HVPRVDHLYVETKS) [compound 315] | 10 | 
13 | 316 (HVPSGERYYVVKTI) [compound 316] | 10 | 
14 | 317 (HVPYVGAYNGVKKS) [compound 317] | 10 | 
15 | 318 (HVQWEGPYYDVKKS) [compound 318] | 10 | 
16 | 319 (HVRGAELSYVLTKS) [compound 319] | 10 | 
17 | 320 (HVTWGEPYQVLNKS) [compound 320] | 10 | 
18 | 321 (KLLTEAPYMFRTQA) [compound 321] | 10 | 
19 | 322 (KLPWQESYDIVRKS) [compound 322] | 10 | 
20 | 323 (KLQWQDPDYVVKNS) [compound 323] | 10 | 
21 | 324 (KQLGVLPDYVRKNT) [compound 324] | 10 | 
22 | 325 (LAPFEERSYALKSP) [compound 325] | 10 | 
23 | 326 (LASWDEPSSVLRES) [compound 326] | 10 | 
24 | 327 (LLPPDEPYYPMKKS) [compound 327] | 10 | 
25 | 328 (NLQWEQPSYVAKDY) [compound 328] | 10 | 
26 | 329 (NVPWSEQYNALKTS) [compound 329] | 10 | 

Row | Substance | Count (Nerve2 only) | Count (Nerve3 only)
27 | 330 (QFASSHTDYVADKS) [compound 330] | 10 | 
28 | 331 (QIQWQGSYNDLNKS) [compound 331] | 10 | 
29 | 332 (QISSEEPTSLLDRP) [compound 332] | 10 | 
30 | 333 (QKPTGASYYGTKPS) [compound 333] | 10 | 
31 | 334 (QLAFDGPSPILTTS) [compound 334] | 10 | 
32 | 335 (QLHWGQPYSILNKS) [compound 335] | 10 | 
33 | 336 (QLPCEVPCYLVQYS) [compound 336] | 10 | 
34 | 337 (QLPLQYRYYFVDQS) [compound 337] | 10 | 
35 | 338 (QLPWEGKYQLGKKR) [compound 338] | 10 | 
36 | 339 (QLRWHEPYHVVNRY) [compound 339] | 10 | 
37 | 340 (QSQCAGPGSAYKKC) [compound 340] | 10 | 
38 | 341 (QTLAGETNSVVLKF) [compound 341] | 10 | 
39 | 342 (QTQCEEPCYVVKFA) [compound 342] | 10 | 
40 | 343 (QVPSEEQFYAAVKS) [compound 343] | 10 | 
41 | 344 (QVPSENPFRVLKNL) [compound 344] | 10 | 
42 | 345 (QVRYVASSDLVRIP) [compound 345] | 10 | 
43 | 346 (QVSLQEPGDVLKEF) [compound 346] | 10 | 
44 | 347 (QVSREEPSGVVNKP) [compound 347] | 10 | 
45 | 348 (RLPSEALYYLVKRS) [compound 348] | 10 | 
46 | 349 (YVPVEGIQHVVEKS) [compound 349] | 10 | 
47 | 350 (HVRCEEPYCHVRKS) [compound 350] |  | 755
48 | 351 (ELPWQKRKDVMKYP) [compound 351] |  | 638
49 | 352 (QMPWEVPYYVVKRS) [compound 352] |  | 548
50 | 353 (DDIWEVPKYRPKNS) [compound 353] |  | 475
51 | 354 (QIASEERDNIVKKS) [compound 354] |  | 462
52 | 355 (RVPWQEPYYVVLKP) [compound 355] |  | 419

Row | Substance | Count (Nerve2 only) | Count (Nerve3 only)
53 | 356 (QLPGYEPYYVGTVS) [compound 356] |  | 412
54 | 357 (RIPSVGPYGVVKTF) [compound 357] |  | 391
55 | 358 (QDVWAEPYYAGKQP) [compound 358] |  | 390
56 | 359 (HVAWQEPRYFVKKS) [compound 359] |  | 359
57 | 360 (YLFAEELAYNLTKS) [compound 360] |  | 359
58 | 361 (QRPWEQAYFVVRST) [compound 361] |  | 357
59 | 362 (FVSREEPYYVVKKS) [compound 362] |  | 341
60 | 363 (DVAREKPYYDMKKS) [compound 363] |  | 335
61 | 364 (QFPSVGSYYVVPQS) [compound 364] |  | 331
62 | 365 (HVVWESSHFVVIDS) [compound 365] |  | 329
63 | 366 (QLRLGDLYNVMTKE) [compound 366] |  | 328
64 | 367 (QFQWQELLNVVKDS) [compound 367] |  | 327
65 | 368 (HVPLQEADYVLKKF) [compound 368] |  | 315
66 | 369 (QFPLYDPYEVMPKS) [compound 369] |  | 310
67 | 370 (HFRWDEPYYIANKA) [compound 370] |  | 300
68 | 371 (RDRHEDSKFVMNHS) [compound 371] |  | 290
69 | 372 (QVPFAHPYYVVNMS) [compound 372] |  | 288
70 | 373 (HVRWGEPSYVLKNF) [compound 373] |  | 272
71 | 374 (QGQTETHSHDAKRY) [compound 374] |  | 270
72 | 375 (QLRFEGPDNPGVQS) [compound 375] |  | 269
73 | 376 (QLPWEVPYSVVRQS) [compound 376] |  | 267
74 | 377 (HVPLPGPYFVLKNY) [compound 377] |  | 263
75 | 378 (HVKRIETYYVFTKS) [compound 378] |  | 258
76 | 379 (RIHLYQPYSILKNY) [compound 379] |  | 258
77 | 380 (QFTSEETHYVVNKS) [compound 380] |  | 257
78 | 381 (QHPWEDPYKIFNKY) [compound 381] |  | 240

Row | Substance | Count (Nerve2 only) | Count (Nerve3 only)
79 | 382 (DVPWPNAYNFGIKS) [compound 382] |  | 238
80 | 383 (DVPFEHSYYGEQQY) [compound 383] |  | 237
81 | 384 (EFLGEAPYYVVSRS) [compound 384] |  | 236
82 | 385 (HVSGEEPYTVGNTS) [compound 385] |  | 234
83 | 386 (QFQLDQSYYSFNTL) [compound 386] |  | 231
84 | 387 (QILRVHPDYVVVNP) [compound 387] |  | 231
85 | 388 (HFPWDEAYLVVKNP) [compound 388] |  | 230
86 | 389 (HFSSQESNSGGKKW) [compound 389] |  | 230
87 | 390 (HISGEDPYFILQNS) [compound 390] |  | 212
88 | 391 (TFQYEQPNLVVKNA) [compound 391] |  | 207
89 | 392 (LLAWDEQDYFLRKT) [compound 392] |  | 199
90 | 393 (HINWDKRYAVVITY) [compound 393] |  | 197
91 | 394 (HFPSEYPFDLVSKS) [compound 394] |  | 196
92 | 395 (QFLWQQPDHVRRKS) [compound 395] |  | 196
93 | 396 (QIVLNAPYYVVKTS) [compound 396] |  | 189
94 | 397 (TVPAHNPYYLVKQT) [compound 397] |  | 185
95 | 398 (QDPSVDPYYVDRSS) [compound 398] |  | 181
96 | 399 (QFHCHGACYIVKNS) [compound 399] |  | 180
97 | 400 (RLPQHESYIVGKIS) [compound 400] |  | 174
98 | 401 (RVYWIDPYYIVNES) [compound 401] |  | 174
99 | 402 (QIPLKTPYNVVKKF) [compound 402] |  | 171
100 | 403 (QFPQGEAGYIAKSF) [compound 403] |  | 163
101 | 404 (QFYWDQSNYGEQKP) [compound 404] |  | 161
102 | 405 (HVPWAGSSDVLKVT) [compound 405] |  | 160
103 | 406 (QVPWEKPVSFVQKS) [compound 406] |  | 159
104 | 407 (HVWWEDPYYVVRKT) [compound 407] |  | 158

Row | Substance | Count (Nerve2 only) | Count (Nerve3 only)
105 | 408 (WLHWEQPYWTVKKS) [compound 408] |  | 143
106 | 409 (LFAGENGYFTVRQF) [compound 409] |  | 139
107 | 410 (QVSWVYPPNDVIVS) [compound 410] |  | 133
108 | 411 (NDPWPVPYYMVKNS) [compound 411] |  | 130
109 | 412 (QVQWQVPYYVVKKP) [compound 412] |  | 128
110 | 413 (HFPLQEPYYVVKNS) [compound 413] |  | 127
111 | 414 (QGSSVATSSVLTML) [compound 414] |  | 123
112 | 415 (QPCADKPYCVHTIT) [compound 415] |  | 123
113 | 416 (HVWWEEAHYSWKHS) [compound 416] |  | 120
114 | 417 (DLFVEEPYLGVIKF) [compound 417] |  | 117
115 | 418 (YSLWEDLIFNMQNS) [compound 418] |  | 116
116 | 419 (QIPWVEASNVLISF) [compound 419] |  | 115
117 | 420 (QFGQENHNHFVRKS) [compound 420] |  | 113
118 | 421 (QVSLVESRSVLKIL) [compound 421] |  | 110
119 | 422 (AVQRAKPYYAVQNS) [compound 422] |  | 109
120 | 423 (HLLGDYRFWAFTNA) [compound 423] |  | 109
121 | 424 (ESPWAPPYYVVKKS) [compound 424] |  | 107
122 | 425 (QIPTVEPYYEGKKS) [compound 425] |  | 105
123 | 426 (QVRGGQPDQVLRLS) [compound 426] |  | 105
124 | 427 (FVARNEPFYVVGTS) [compound 427] |  | 104
125 | 428 (QIPLEEMYYVVRTY) [compound 428] |  | 103
126 | 429 (QVSSVGPNHVVKKI) [compound 429] |  | 102
